Reference: patent publication US20080248076A1, “ANTIMICROBIAL RUBBER BANDS” (priority 2007, published 2008)
Where “and” joins values, the source holds several entries; their conditions need not be identical. Equal values may be shown once.

Columns and labels:
Pseudomonas aeruginosa [1] = settings: it has been reported; cited from earlier work
Escherichia coli = assay: Growth Inhibitor Test (zone of inhibition / kill zone on agar); format: cell-based; settings: E. coli, Standard Methods Agar, 48 hours at 32.0° C; heading says test organism died, assay invalid; Sodium Hypochlorite @ 100 ppm on paper disc
Excerpt: (§1) Test Scope: The Growth Inhibitor Test was used to determine the toxicity of a rubber band containing zinc pyrithione. Any presence of toxic residues in the test material (rubber band) will inhibit bacterial growth in the agar medium. A zone of inhibition or no growth of test organism around the test material indicates the presence of toxic residues in the test material. The intensity of inhibition is indicative of the concentration of the toxic agent.
(§2) Test Objective: Four (4) test organisms were used in this assay to determine toxicity. Each organism was suspended in specific agar medium, incubated at 35° C. for 48 hours, and then read to determine growth or no growth of test organism. Each test organism was grown individually in a Petri plate and the test material was planted unto the agar plate to determine the outcome. If no toxic residues were present in the test material, then the test bacteria grew around and under the test medium producing a “lawn effect.” If inhibitory substances were present in the test material, it would diffuse into the agar medium and prevent the growth of bacterial in the medium. The larger the zone of inhibition, the higher the concentration of toxic substances.
(§3) Test Organisms: The following four (4) organisms were employed: Escherichia coli, Staphylococcus aureus, Pseudomonas aeruginosa, and Pasteurella multocida. Each test organism's concentration was estimated to be 100,000 cfu to 1,000,000 cfu per milliliter.
(§4) Materials used included: 1. Baird Parker Agar for Staphylococcus aureus; 2. Standard Methods Agar for E. coli and Pseudomonas aeruginosa; 3. Tryptic Soy Agar for Pasteurella multocida; 4. 100 ppm chlorinated water to serve as a positive control; 5. Distilled water to serve as the negative control; 6. Quebec Colony Counter; 7. Incubator at 32.0 C; 8. Petri plates (85 mm diameter); 9. Vernier calibrators; 10.

Pasteurella multocida = assay: as above; format: cell-based; settings: Tryptic Soy Agar, 48 hours at 32.0° C, rubber with 1000 ppm zinc pyrithione, Sodium Hypochlorite @ 100 ppm on paper disc
Excerpt: as §1, §2, §3, §4

Pseudomonas aeruginosa [2] = assay: as above; format: cell-based; settings: Standard Methods Agar, 48 hours at 32.0° C, rubber with 1000 ppm zinc pyrithione, Sodium Hypochlorite @ 100 ppm on paper disc
Excerpt: as §1, §2, §3, §4

Staphylococcus aureus = assay: as above; format: cell-based; settings: Baird Parker Agar, 48 hours at 32.0° C, rubber with 1000 ppm zinc pyrithione, Sodium Hypochlorite @ 100 ppm on paper disc
Excerpt: as §1, §2, §3, §4

[3] = system: all of the organisms tested (Escherichia coli, Staphylococcus aureus, Pseudomonas aeruginosa, Pasteurella multocida); assay: Growth Inhibitor Test, overall conclusion; format: cell-based; settings: versus sodium hypochlorite at 100 ppm disinfection concentration
Excerpt: as §1, §2
Test Organisms: The following four (4) organisms were employed: Escherichia coli, Staphylococcus aureus, Pseudomonas aeruginosa, and Pasteurella multocida. […]

For `Oc1cc(Cl)ccc1Oc1ccc(Cl)cc1Cl` [triclosan], the “efficacy against Pseudomonas aeruginosa” value (Pseudomonas aeruginosa [1]) is listed as “little or no efficacy”.

For `OCl` [Sodium Hypochlorite], the “zone of inhibition or kill zone” value (Escherichia coli) was 1.6 cm and 1.4 cm, the “zone of inhibition or kill zone” value (Pasteurella multocida) was 3.5 cm and 3.2 cm and the kill zone (Pseudomonas aeruginosa [2]) was 3.1 cm and 3.0 cm. The “zone of inhibition or kill zone” value (Staphylococcus aureus) was 3.0 cm and 2.5 cm.

In the case of `[O-][n+]1ccccc1[S-].[O-][n+]1ccccc1[S-].[Zn+2]` [zinc pyrithione, zinc 2-pyridinethiol-n-oxide], the “toxicity compared with sodium hypochlorite (similar kill zones)” value [3] is reported as “equal to the potency of sodium hypochlorite at 100 ppm”.
